Assay results: PMC11423305, “Structure-Based Design of CBP/EP300 Degraders: When Cooperativity Overcomes Affinity” (JACS Au, 2024)
Read-outs that look alike come from different tables or passages of the source.

What was measured:
[1] = target: T1, CBP-BRD (Homo sapiens, UniProt Q92793); assay: BROMOscan ligand binding site-directed competition assay, CBP; design: T7 phage display fusion with DNA tag for qPCR; purchased Eurofins Discovery (BROMOscan service); host or cells: E. coli infected with T7 phage
Experimental: 2. Methods and General Procedures […]
KD values were determined using BROMOscan™ technology, carried out by Eurofins […]
Discovery according to their standard protocol. Briefly E. coli were infected with T7 phage […]
strains displaying bromodomains and bromodomain protein was subsequently purified […]
through lysis, centrifugation and filtration. Affinity resins were generated by incubation of […]
streptavidin-coated magnetic beads with biotinylated small molecules or acetylated […]
peptide ligands. Binding reactions were assembled by combining the bromodomains and […]
liganded affinity beads in binding buffer (17 % SeaBlock, 0.33x PBS, 0.04 % Tween 20, […]
0.02 % BSA, 0.004 % sodium azide and 7.4 mM DTT) with compounds (11-point, 3-fold […]
dilution series) added to give a final DMSO concentration of 0.09 %. Assay plates were […]
incubated for 1 h, prior to washing and elution of beads. The bromodomain concentration […]
in the eluates was measured by qPCR of the DNA tag on the bromodomain.
KD values were calculated with a standard dose-response curve fitted using the Hill […]
Response = Background + Signal − Background […]
The Hill Slope was set to -1 and curves fitted using a non-linear least square fit with the Levenberg-Marquardt algorithm.
Ligand efficiency (LE) was calculated as follows: LE = 1.4(pIC50)/N
Target sequence in this assay (Q92793 1085-1192 limits assumed): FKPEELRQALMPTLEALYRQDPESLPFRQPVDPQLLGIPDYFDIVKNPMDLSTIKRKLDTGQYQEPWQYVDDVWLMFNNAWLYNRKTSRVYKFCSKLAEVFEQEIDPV

[2] = test system: MM1S cells; assay: Cell viability (resazurin), MM1S; type: cell-based; settings: Homo sapiens, MM1.S, 72 h, 3 days
Experimental: The primer sequences used were:
Gene Gene ID Forward Primer (5’-3’) Reverse primer (5’-3’)
myc NM_001354870.1 GTAGTGGAAAACCAGCC […]
crebbp NM_004380.3 TGTCACAGGGACAGGTGC […]
Cells were plated onto 96 well plates at the following densities in 90 μl volume: 3x104
LP1 cells/well or 5x10^3 LNCaP cells/well both plated same day as treatment, or 2x104
MM1S cells/well or 1.5x10^3 SH-SY5Y cells/well both plated day prior to treatment.
Compounds were added in 10 μl to give the stated concentrations with a final
concentration of 0.1 % DMSO. Following 3 days of compound treatment, resazurin
(Acros Organics, 189900010) was added at a f inal concentration of 86 μM and incubated
for the following times: MM1S 5 h, LP1 3 h, LNCaP 1 h 30 min, SH-SY5Y 6 h.
Fluorescence (excitation = 560 nm, emission = 590 nm) was measured using a
spectraMax M5 microplate reader (Molecular Devices) and cell viability was calculated
relative to DMSO treated cells on the same plate. Data was fitted using a four -parameter
dose-response curve in GraphPad Prism v. 9.5.1, where the top is fixed at 100 %. GI50
values were calculated as the concentration required to inhibit cell viability to 50 %
relative to DMSO treated cells after 3 days.
Sample digestion and clean up: Treated cells were washed in PBS and cell pellets
were then lysed in 4 % SDS/Tris-HCl, treated with High Intensity Focused Ultrasound […]

[3] = test system: CBP/EP300; assay: Western blot of CBP and EP300 levels in various cell lines; type: cell-based; settings: 16 h, 1 μM
[4] = target: T1, CBP-BRD; assay: TR-FRET competition with acetylated peptide binding to CBP-BRD, with and without CRBN (cooperativity); design: GST-CBP (human, residues 1081-1197); made in house; host or cells: Rosetta (DE3) cells (E. coli)

Kd ([1]; BROMOscan): 1300 nM
loss of potency compared to parent compound 3, CBP ([1]; BROMOscan KD ratio): > 40 fold
GI50 [2]: 35 nM
IC50 ([4]; absence of CRBN, read-out: CBP-BRD IC50 (binary, IC50[control])): 150 nM
IC50 ([4]; presence of high concentrations of CRBN C-terminal thalidomide binding domain, read-out: ternary IC50 (IC50[CRBN])): 45 nM
SMILES: Cc1cc2c(NC(=O)c3cc(NC(=O)CCCCCCCCCCNc4cccc5c4C(=O)N(C4CCC(=O)NC4=O)C5=O)cc(-c4ccn(C)n4)c3)cccc2nn1 (stereo not drawn) [dCE-2]
CBP/EP300 degradation in MM1S, LNCaP and SH-SY5Y cells [3]: active degrader
